Among the data in ChEMBL document CHEMBL1137357, “Further synthetic and biological studies on vitamin D hormone antagonists based on C24-alkylation and C2alpha-functionalization of 25-dehydro-1alpha-hydroxyvitamin D(3)-26,23-lactones” (J Med Chem, 2006) are Activity values, retold here.

This assay has as its target T1, Vitamin D3 receptor (Homo sapiens) (UniProt P11473).
T1 sequence (whole entry): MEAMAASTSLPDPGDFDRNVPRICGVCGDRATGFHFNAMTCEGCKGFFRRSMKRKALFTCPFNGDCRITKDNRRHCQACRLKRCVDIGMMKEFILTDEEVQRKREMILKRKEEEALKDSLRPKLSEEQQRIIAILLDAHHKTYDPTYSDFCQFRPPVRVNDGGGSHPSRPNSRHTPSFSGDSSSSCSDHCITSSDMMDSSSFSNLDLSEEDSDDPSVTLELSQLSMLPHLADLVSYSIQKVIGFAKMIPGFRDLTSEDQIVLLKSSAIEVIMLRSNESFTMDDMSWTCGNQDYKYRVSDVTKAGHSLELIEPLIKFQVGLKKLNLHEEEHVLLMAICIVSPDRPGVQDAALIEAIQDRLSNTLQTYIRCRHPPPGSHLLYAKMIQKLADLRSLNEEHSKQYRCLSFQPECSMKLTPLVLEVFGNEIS
As to the kind of experiment: Antagonist activity against 1-alpha,25-dihydroxy vitamin D3-induced HL60 cell differentiation by NBT reduction method relative to TEI-9647. It counts as functional, cell-based. The arrangement: scale not given: the % may be the effect or the level left. To be noted: HL-60.
As for `C=C1C(=O)O[C@@H](C[C@@H](C)[C@H]2CC[C@H]3/C(=C/C=C4/C[C@@H](O)[C@H](OCCCO)[C@H](O)C4=C)CCC[C@]23C)[C@@H]1C`, the Activity amounted to 1740%.

In turn, `C=C1/C(=C\C=C2/CCC[C@]3(C)[C@@H]([C@H](C)C[C@H]4OC(=O)C(=C)[C@@H]4C)CC[C@@H]23)C[C@@H](O)[C@H](CCCO)[C@@H]1O` had an Activity of 8%.

Molecule `C=C1/C(=C\C=C2/CCC[C@]3(C)[C@@H]([C@H](C)C[C@H]4OC(=O)C(=C)[C@@H]4CC(C)C)CC[C@@H]23)C[C@@H](O)[C@H](OCCCO)[C@@H]1O` had an Activity of 42%.

For `C=C1/C(=C\C=C2/CCC[C@]3(C)[C@@H]([C@H](C)C[C@@H]4OC(=O)C(=C)[C@H]4CC(C)C)CC[C@@H]23)C[C@@H](O)[C@H](C)[C@@H]1O`, the Activity worked out at 229%.

Molecule `C=C1/C(=C\C=C2/CCC[C@]3(C)[C@@H]([C@H](C)C[C@@H]4OC(=O)C(=C)[C@@H]4CC)CC[C@@H]23)C[C@@H](O)[C@H](CCCO)[C@@H]1O` had an Activity of 442%.

Molecule `C=C1/C(=C\C=C2/CCC[C@]3(C)[C@@H]([C@H](C)C[C@H]4OC(=O)C(=C)[C@@H]4CCC)CC[C@@H]23)C[C@@H](O)[C@H](C)[C@@H]1O` came in with an Activity of 12%.

Molecule `C=C1C(=O)O[C@H](C[C@@H](C)[C@H]2CC[C@H]3/C(=C/C=C4/C[C@@H](O)C[C@H](O)C4=C)CCC[C@]23C)[C@@H]1CC` had an Activity of 13%.

Take `C=C1/C(=C\C=C2/CCC[C@]3(C)[C@@H]([C@H](C)C[C@@H]4OC(=O)C(=C)[C@@H]4CC)CC[C@@H]23)C[C@@H](O)[C@H](C)[C@@H]1O`: the Activity is 1290%.

Consider `C=C1C(=O)O[C@@H](C[C@@H](C)[C@H]2CC[C@H]3/C(=C/C=C4/C[C@@H](O)[C@H](C)[C@H](O)C4=C)CCC[C@]23C)[C@@H]1C`, for which the Activity stood at 6190%.

`C=C1C[C@H](C[C@@H](C)[C@H]2CC[C@H]3/C(=C/C=C4/C[C@@H](O)[C@H](C)[C@H](O)C4=C)CCC[C@]23C)OC1=O` yielded an Activity of 1020%.

The molecule `C=C1/C(=C\C=C2/CCC[C@]3(C)[C@@H]([C@H](C)C[C@H]4OC(=O)C(=C)[C@H]4CCC)CC[C@@H]23)C[C@@H](O)[C@H](CCCO)[C@@H]1O` came in with an Activity of 117%.

As for `C=C1/C(=C\C=C2/CCC[C@]3(C)[C@@H]([C@H](C)C[C@@H]4OC(=O)C(=C)[C@@H]4CCCC)CC[C@@H]23)C[C@@H](O)C[C@@H]1O`, the Activity is 179%.

`C=C1C(=O)O[C@H](C[C@@H](C)[C@H]2CC[C@H]3/C(=C/C=C4/C[C@@H](O)[C@H](C)[C@H](O)C4=C)CCC[C@]23C)[C@@H]1C`: the Activity came out at 476%.

In the case of `C=C1/C(=C\C=C2/CCC[C@]3(C)[C@@H]([C@H](C)C[C@@H]4OC(=O)C(=C)[C@@H]4CC(C)C)CC[C@@H]23)C[C@@H](O)[C@H](OCCCO)[C@@H]1O`, the Activity was determined as 3440%.

As for `C=C1/C(=C\C=C2/CCC[C@]3(C)[C@@H]([C@H](C)C[C@@H]4OC(=O)C(=C)[C@@H]4CCC)CC[C@@H]23)C[C@@H](O)[C@H](CCCO)[C@@H]1O`, the Activity came to 4200%.

For `C=C1/C(=C\C=C2/CCC[C@]3(C)[C@@H]([C@H](C)C[C@H]4OC(=O)C(=C)[C@@H]4CCCC)CC[C@@H]23)C[C@@H](O)[C@H](CCCO)[C@@H]1O`, the Activity amounted to 303%.

For the molecule `C=C1C[C@@H](C[C@@H](C)[C@H]2CC[C@H]3/C(=C/C=C4/C[C@@H](O)[C@H](OCCCO)[C@H](O)C4=C)CCC[C@]23C)OC1=O`, the Activity stood at 66%.

Turning to `C=C1/C(=C\C=C2/CCC[C@]3(C)[C@@H]([C@H](C)C[C@@H]4OC(=O)C(=C)[C@@H]4CC(C)C)CC[C@@H]23)C[C@@H](O)[C@H](C)[C@@H]1O`, the Activity amounted to 1220%.

With `C=C1/C(=C\C=C2/CCC[C@]3(C)[C@@H]([C@H](C)C[C@@H]4OC(=O)C(=C)[C@H]4CCC)CC[C@@H]23)C[C@@H](O)[C@H](CCCO)[C@@H]1O`, the Activity was 913%.

`C=C1C(=O)O[C@@H](C[C@@H](C)[C@H]2CC[C@H]3/C(=C/C=C4/C[C@@H](O)C[C@H](O)C4=C)CCC[C@]23C)[C@@H]1CCC`: the Activity turned out to be 60%.

In the case of `C=C1/C(=C\C=C2/CCC[C@]3(C)[C@@H]([C@H](C)C[C@H]4OC(=O)C(=C)[C@@H]4CC)CC[C@@H]23)C[C@@H](O)[C@H](CCCO)[C@@H]1O`, the Activity came out at 37%.

In the case of `C=C1/C(=C\C=C2/CCC[C@]3(C)[C@@H]([C@H](C)C[C@@H]4OC(=O)C(=C)[C@@H]4CCCC)CC[C@@H]23)C[C@@H](O)[C@H](CCCO)[C@@H]1O`, the Activity turned out to be 1160%.

Take `C=C1/C(=C\C=C2/CCC[C@]3(C)[C@@H]([C@H](C)C[C@H]4OC(=O)C(=C)[C@H]4CC)CC[C@@H]23)C[C@@H](O)[C@H](C)[C@@H]1O`: the Activity stood at 74%.

For `C=C1/C(=C\C=C2/CCC[C@]3(C)[C@@H]([C@H](C)C[C@H]4OC(=O)C(=C)[C@@H]4CCCC)CC[C@@H]23)C[C@@H](O)[C@H](C)[C@@H]1O`, the Activity came to 1%.

For the molecule `C=C1/C(=C\C=C2/CCC[C@]3(C)[C@@H]([C@H](C)C[C@@H]4OC(=O)C(=C)[C@@H]4CCCC)CC[C@@H]23)C[C@@H](O)[C@H](OCCCO)[C@@H]1O`, the Activity came out at 1660%.

Molecule `C=C1/C(=C\C=C2/CCC[C@]3(C)[C@@H]([C@H](C)C[C@@H]4OC(=O)C(=C)[C@H]4CC)CC[C@@H]23)C[C@@H](O)[C@H](CCCO)[C@@H]1O` showed an Activity of 866%.

With `C=C1C(=O)O[C@@H](C[C@@H](C)[C@H]2CC[C@H]3/C(=C/C=C4/C[C@@H](O)[C@H](CCCO)[C@H](O)C4=C)CCC[C@]23C)[C@@H]1C`, the Activity was determined as 1510%.

Regarding `C=C1/C(=C\C=C2/CCC[C@]3(C)[C@@H]([C@H](C)C[C@@H]4OC(=O)C(=C)[C@@H]4CC(C)C)CC[C@@H]23)C[C@@H](O)C[C@@H]1O`, the Activity is 174%.

`C=C1/C(=C\C=C2/CCC[C@]3(C)[C@@H]([C@H](C)C[C@@H]4OC(=O)C(=C)[C@@H]4CCC)CC[C@@H]23)C[C@@H](O)C[C@@H]1O` yielded an Activity of 86%.

In turn, `C=C1/C(=C\C=C2/CCC[C@]3(C)[C@@H]([C@H](C)C[C@@H]4OC(=O)C(=C)[C@@H]4CCC)CC[C@@H]23)C[C@@H](O)[C@H](C)[C@@H]1O` yielded an Activity of 1540%.

`C=C1/C(=C\C=C2/CCC[C@]3(C)[C@@H]([C@H](C)C[C@H]4OC(=O)C(=C)[C@@H]4CCCC)CC[C@@H]23)C[C@@H](O)C[C@@H]1O` returned an Activity of 4%.

The molecule `C=C1C[C@@H](C[C@@H](C)[C@H]2CC[C@H]3/C(=C/C=C4/C[C@@H](O)[C@H](CCCO)[C@H](O)C4=C)CCC[C@]23C)OC1=O` gave an Activity of 100%.

`C=C1/C(=C\C=C2/CCC[C@]3(C)[C@@H]([C@H](C)C[C@H]4OC(=O)C(=C)[C@H]4CCCC)CC[C@@H]23)C[C@@H](O)[C@H](CCCO)[C@@H]1O` had an Activity of 46%.

`C=C1/C(=C\C=C2/CCC[C@]3(C)[C@@H]([C@H](C)C[C@@H]4OC(=O)C(=C)[C@H]4CCCC)CC[C@@H]23)C[C@@H](O)[C@H](CCCO)[C@@H]1O` gave an Activity of 122%.

Molecule `C=C1C(=O)O[C@H](C[C@@H](C)[C@H]2CC[C@H]3/C(=C/C=C4/C[C@@H](O)C[C@H](O)C4=C)CCC[C@]23C)[C@@H]1C` returned an Activity of 18%.

As to `C=C1/C(=C\C=C2/CCC[C@]3(C)[C@@H]([C@H](C)C[C@@H]4OC(=O)C(=C)[C@@H]4C)CC[C@@H]23)C[C@@H](O)[C@H](C)[C@@H]1O`, the Activity amounted to 3750%.

Take `C=C1/C(=C\C=C2/CCC[C@]3(C)[C@@H]([C@H](C)C[C@@H]4OC(=O)C(=C)[C@@H]4CC(C)C)CC[C@@H]23)C[C@@H](O)[C@H](CCCO)[C@@H]1O`: the Activity stood at 989%.

As for `C=C1C(=O)O[C@H](C[C@@H](C)[C@H]2CC[C@H]3/C(=C/C=C4/C[C@@H](O)[C@H](OCCCO)[C@H](O)C4=C)CCC[C@]23C)[C@@H]1C`, the Activity stood at 41%.

In turn, `C=C1/C(=C\C=C2/CCC[C@]3(C)[C@@H]([C@H](C)C[C@@H]4OC(=O)C(=C)[C@@H]4CCCC)CC[C@@H]23)C[C@@H](O)[C@H](C)[C@@H]1O` came in with an Activity of 2910%.

The molecule `C=C1C(=O)O[C@@H](C[C@@H](C)[C@H]2CC[C@H]3/C(=C/C=C4/C[C@@H](O)C[C@H](O)C4=C)CCC[C@]23C)[C@@H]1C` gave an Activity of 250%.

As for `C=C1/C(=C\C=C2/CCC[C@]3(C)[C@@H]([C@H](C)C[C@@H]4OC(=O)C(=C)[C@@H]4CC)CC[C@@H]23)C[C@@H](O)[C@H](OCCCO)[C@@H]1O`, the Activity came to 600%.

`C=C1/C(=C\C=C2/CCC[C@]3(C)[C@@H]([C@H](C)C[C@@H]4OC(=O)C(=C)[C@H]4CCCC)CC[C@@H]23)C[C@@H](O)[C@H](C)[C@@H]1O` displayed an Activity of 216%.

Molecule `C=C1C(=O)O[C@@H](C[C@@H](C)[C@H]2CC[C@H]3/C(=C/C=C4/C[C@@H](O)C[C@H](O)C4=C)CCC[C@]23C)[C@@H]1CC` had an Activity of 70%.
